Laboratory results from article PMC8707548, “Restoring Tumour Selectivity of the Bioreductive Prodrug PR-104 by Developing an Analogue Resistant to Aerobic Metabolism by Human Aldo-Keto Reductase 1C3” (Pharmaceuticals, 2021).

Target: T1, recombinant AKR1C3 (human aldo-keto reductase 1C3) (Homo sapiens, UniProt P42330)
T1 construct: recombinant enzyme
T1 sequence (P42330 1-323): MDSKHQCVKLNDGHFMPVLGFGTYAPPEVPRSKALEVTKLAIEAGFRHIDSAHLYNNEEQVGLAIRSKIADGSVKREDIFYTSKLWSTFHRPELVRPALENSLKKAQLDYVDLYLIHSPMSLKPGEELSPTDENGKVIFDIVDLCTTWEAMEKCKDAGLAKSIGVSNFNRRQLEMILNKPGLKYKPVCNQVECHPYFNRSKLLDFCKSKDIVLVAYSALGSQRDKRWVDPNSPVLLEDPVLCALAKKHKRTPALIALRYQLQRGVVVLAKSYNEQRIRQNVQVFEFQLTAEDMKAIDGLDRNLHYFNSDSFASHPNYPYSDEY
Test: absorbance at […] nm, Michaelis-Menten fit
Type: biochemical
Conditions: 0.25 mM NAD(P)H, 10 mM Tris-Cl pH 7.0, 4% DMSO

Compound: CS(=O)(=O)OCCN(CCBr)c1c(C(=O)NCCO)cc([N+](=O)[O-])cc1[N+](=O)[O-] [PR-104A]
- KM: kinetic parameters calculated for each (D)NBM using the following extinction coefficients: PR-104A
